# According to paper PMC9607282 (Pharmaceutics, 2022):
# Read-outs that look alike come from different tables or passages of the source.
# What was measured:
# [1] = Pharmacokinetics in plasma and PELF of healthy pigs after intramuscular injection; assay type: in vivo; settings: for T 1/2λ / AUC(0-t) / Cmax / Tmax / MRT last: n = 6; for AUC(0-t) / Cmax / Tmax / MRT last: pig, im; for AUC(0-t): AUC 24h; for MRT last: read-out: MRT 24h
# Protocol: (§1) Twenty-four pigs were randomly divided into 4 groups with 3 healthy groups and 1 infected group. […] The infected group was infected with G. parasuis H78 for 3 days.
# (§2) Add 3 mL of a mixture of dichloromethane and acetonitrile, and vortex centrifuge for 5 min at 10,000 rpm for 10 min. Remove the supernatant into a 10 mL centrifuge tube. Add 3 mL of dichloromethane and acetonitrile to the residue. Extract once again as described above. Combine the supernatant twice, and dissolve the residue with 1 mL of the initial mobile phase. Vortex to mix. Add 1 mL of n-hexane, remove the n-hexane layer (upper layer) to achieve the purpose of degreasing, and then use a 0.22-μm filter membrane to obtain a sample purification solution.
# (§3) A C18 reverse phase column (250 mm × 4.6 mm, i.d., 5 µm, Agilent, Santa Clara, CA, USA) was used for HPLC, which was executed at a detection wavelength of 270 nm at 25 °C. The mobile phase comprised 0.1% trifluoroacetic acid (phase A) and 100% methanol (phase C) with a mobile phase flow rate of 1 mL/min.
# (§4) The urea dilution method was used to determine the volume of PELF as described previously. The concentration of urea and PELF were determined by the urease-glutamate dehydrogenase enzymatic method with an automatic biochemical analyzer (SYNCHRON CX4 PRO; Beckman, Brea, CA, USA) at the National Reference Laboratory of Veterinary Drug Residues (Wuhan, China).
# [2] = Pharmacokinetics in plasma and PELF of pigs infected with G. parasuis H78 after intramuscular injection; assay type: in vivo; settings: for T 1/2λ: infected group, ADP/SMZ injection 5/25 mg/kg b.w. i.m., n = 6; for Tmax: pig, im
# Protocol: as §1, §2, §3, §4
# [3] = test system: G. parasuis H78; assay: Mutant prevention concentration (MPC), agar dilution; assay type: cell-based, Glaesserella parasuis
# Protocol: (§5) The MIC and MBC of G. parasuis H78 in broth and pulmonary epithelial lining fluid (PELF) were determined by the broth dilution method according to the CLSI M07-A9 standard with some modifications. The MPC of G. parasuis H78 in broth was determined by the agar dilution method recommended by CLSI M07-A9. The post-antimicrobial effect (PAE) was determined by the method of bacterial and drug removal after incubation.
# [4] = six-month-old castrated boar ref 22; cited from earlier work
# [5] = test system: G. parasuis H78; assay: PK-PD integration, sigmoid Emax model on ex vivo time killing in PELF; assay type: cell-based, Glaesserella parasuis; settings: ADP/SMZ injection 5/25 mg/kg b.w. i.m.
# Protocol: The association between antimicrobial efficiency and the ex vivo PK-PD parameters of AUC0−24h/MIC ratios was simulated by using the model of Emax inhibitory Sigmoid.
# [6] = test system: G. parasuis H78; assay: Post-antimicrobial effect (PAE); assay type: cell-based, Glaesserella parasuis
# Protocol: as §5
# [7] = Adverse reactions after single intramuscular injection in pigs; settings: single dose ADP 5, SMZ 25, ADP/SMZ 5/25 mg/kg b.w.
# Protocol: as §1
# A single dose of 5 mg/kg b.w., 25 mg/kg b.w., and 5/25 mg/kg b.w.
# [8] = test system: E. coli (ATCC 25922); assay: MIC quality control, agar dilution (CLSI M07-A9); assay type: cell-based; settings: Escherichia coli, ATCC25922, quality control strain
# From the text: E. coli (ATCC 25922) and chloramphenicol were used as quality control, and the experimental results were only valid when the MIC was within the quality control range.
# [9] = PELF, PELF, healthy group, ADP/SMZ injection 5/25 mg/kg b.w. i.m.
# [10] = PELF, PELF, healthy pigs, single drug i.m.: ADP 5 mg/kg b.w., SMZ 25 mg/kg b.w.
# [11] = plasma, plasma, healthy group, ADP/SMZ injection 5/25 mg/kg b.w. i.m.
# [12] = plasma, plasma, healthy pigs, single drug i.m.: ADP 5 mg/kg b.w., SMZ 25 mg/kg b.w.
smiles,measurement,setting,value
"COc1cc(Cc2cnc(N)nc2N)cc(OC)c1N(C)C [ADP, Aditoprim]",concentration in PELF after 36 h,"[1]; LOD 0.05 µg/mL, HPLC",below LOD
same,concentration in plasma after 24 h,"[1]; LOD 0.05 µg/mL, HPLC",below LOD
same,T 1/2λ,"[1]; PELF, healthy group, ADP/SMZ injection 5/25 mg/kg b.w. i.m.",6.05 ± 0.20 h
same,T 1/2λ,"[1]; PELF, healthy pigs, single drug i.m.: ADP 5 mg/kg b.w., SMZ 25 mg/kg b.w.",6.42 ± 0.43 h
same,AUC(0-t),[1]; [9],49100 ± 520 ng·h/mL
same,AUC(0-t),[1]; [10],44800 ± 540 ng·h/mL
same,Cmax,[1]; [9],6780 ± 110 ng/mL
same,Tmax,[1]; [9],1.95 ± 0.06 h
same,MRT last,[1]; [9],6.88 ± 0.11 h
same,Cmax,[1]; [10],6880 ± 140 ng/mL
same,Tmax,[1]; [10],2 h
same,MRT last,[1]; [10],6.43 ± 0.09 h
same,AUC(0-t),[1]; [11],7710 ± 260 ng·h/mL
same,AUC(0-t),[1]; [12],7590 ± 240 ng·h/mL
same,Cmax,[1]; [11],870 ± 90 ng/mL
same,Tmax,[1]; [11],2 h
same,MRT last,[1]; [11],7.76 ± 0.26 h
same,Cmax,[1]; [12],920 ± 80 ng/mL
same,Tmax,[1]; [12],1 h
same,MRT last,[1]; [12],7.63 ± 0.27 h
same,T 1/2λ,"[1]; plasma, healthy group, ADP/SMZ injection 5/25 mg/kg b.w. i.m.",7.97 ± 0.81 h
same,T 1/2λ,"[1]; plasma, healthy pigs, single drug i.m.: ADP 5 mg/kg b.w., SMZ 25 mg/kg b.w.",8.8 ± 0.53 h
same,T 1/2λ,[2]; PELF,6.48 ± 0.62 h
same,Tmax,[2]; PELF,1.96 ± 0.05 h
same,Tmax,[2]; plasma,2 h
same,T 1/2λ,[2]; plasma,8.45 ± 0.61 h
same,MPC,[3],20 µg/mL
same,apparent distribution volume,[4],> 1.4 L/kg
same,elimination half-life,[4],> 2.25 h
same,(AUC24h/MIC)ex (E = 0),[5]; healthy group,32.25 h
same,(AUC24h/MIC)ex (E = −3),[5]; healthy group,113.28 h
same,(AUC24h/MIC)ex (E = −4),[5]; healthy group,221.41 h
same,E 0,[5]; healthy group,−4.78 Log10CFU/mL
same,EC 50 (AUC0−24h/MIC giving 50% of Emax),[5]; healthy group,56.4 h
same,Emax,[5]; healthy group,2.07 Log10CFU/mL
same,Emax − E0,[5]; healthy group,6.85 Log10CFU/mL
same,N (Hill coefficient),[5]; healthy group,1.5
same,(AUC24h/MIC)ex (E = 0),[5]; infected group,27.19 h
same,(AUC24h/MIC)ex (E = −3),[5]; infected group,102.29 h
same,(AUC24h/MIC)ex (E = −4),[5]; infected group,204.17 h
same,E 0,[5]; infected group,−4.8 Log10CFU/mL
same,EC 50 (AUC0−24h/MIC giving 50% of Emax),[5]; infected group,48.06 h
same,Emax,[5]; infected group,2.15 Log10CFU/mL
same,Emax − E0,[5]; infected group,6.95 Log10CFU/mL
same,N (Hill coefficient),[5]; infected group,1.41
same,PAE,"[6]; 1 × MIC, exposure 1 h",0.02 h
same,PAE,"[6]; 1 × MIC, exposure 2 h",0.40 h
same,PAE,"[6]; 2 × MIC, exposure 1 h",0.11 h
same,PAE,"[6]; 2 × MIC, exposure 2 h",0.43 h
same,PAE,"[6]; 4 × MIC, exposure 1 h",0.20 h
same,PAE,"[6]; 4 × MIC, exposure 2 h",0.48 h
same,adverse reactions after intramuscular injection,[7],No serious adverse reactions
"Cc1cc(NS(=O)(=O)c2ccc(N)cc2)no1 [SMZ, Sulfamethoxazole, reference compound]",E 0,[5]; healthy group,−4.4 Log10CFU/mL
same,Emax,[5]; healthy group,2.3 Log10CFU/mL
same,Emax − E0,[5]; healthy group,6.7 Log10CFU/mL
same,N (Hill coefficient),[5]; healthy group,1.56
same,E 0,[5]; infected group,−4.55 Log10CFU/mL
same,Emax,[5]; infected group,2.36 Log10CFU/mL
same,N (Hill coefficient),[5]; infected group,1.52
same,adverse reactions after intramuscular injection,[7],No serious adverse reactions
"COc1cc(Cc2cnc(N)nc2N)cc(OC)c1OC [TMP, trimethoprim, reference compound]",apparent distribution volume,[4],1.4 L/kg
same,elimination half-life,[4],2.25 h
O=C(N[C@H](CO)[C@H](O)c1ccc([N+](=O)[O-])cc1)C(Cl)Cl [chloramphenicol],MIC,[8],4 µg/mL
